Assay results taken from patent publication US9789096B2, “Methods and compositions for selective and targeted cancer therapy” (Board of Regents of the University of Texas System, priority 2013, dated 2017).
pIC50: −log10 of the molar value. Like-named read-outs stand apart in the source and are kept apart here.

Tests used:
Format in all cases: cell-based, human
[1] = tested on: H2122; test: Cell viability dose-response, H2122; settings: Homo sapiens; for AC50: NCI-H2122, Table 8, 12-point dose-response starting at 50 micromolar; for IC50: NCI-H2122, Tables 3 and 4, read-out: IC50 (uM) vs indicated non-small cell lung cancer cell line H2122
Method in brief: (§1)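 Cells plated at 15% confluence in RPMI-1640 with 5% FBS and 2 mM L-glutamine, treated with compound in a 12-point, 3-fold dilution series from 50 micromolar, in duplicate. ATP measured by Cell Titer Glo after 4 days; IC50 taken from the dose-response curve.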

[2] = tested on: H2073; test: Cell viability dose-response, H2073; settings: Homo sapiens; for AC50: NCI-H2073, Table 8, 12-point dose-response starting at 50 micromolar; for IC50: NCI-H2073, Tables 3 and 4, read-out: IC50 (uM) vs indicated non-small cell lung cancer cell line H2073
Description: FIG. 6A. […] Cell viability is plotted vs. compound concentration. Compound was added to cells plated at 15% confluence in 96-well plates in RPMI-1640 media supplemented with 5% Fetal Bovine Serum and 2 mM L-Glutamine. After 4 days of incubation, ATP levels were measured using Cell Titer Glo (Promega). Data are presented as the average of 2 replicates ±SEM.
Selectivity may be measured by the half maximal inhibitory concentration (IC50), which, as used herein, is a measure of the effectiveness of a compound in killing cells. This quantitative measure indicates how much of a particular compound is needed to kill a particular cell population by half (e.g., as indicated by the amount of ATP). […] The IC50 can be determined by constructing a dose-response curve. The lower the IC50, the higher the potency, and the greater the difference between IC50 values for different cell lines (e.g., sensitive lines vs. insensitive lines, and sensitive lines vs. normal lines) the greater the selectivity. […]
With this information, we synthesized and tested a series of small molecules derived in conception from the oxalamide and chromone scaffold including N-acyl ureas, as shown in Tables 6-8. Each compound was tested in a 12-point dose-response study starting at 50 micromolar and decreasing in 3-fold increments to sub-nanomolar concentrations, in duplicate. Additionally, one or more additional cell line was tested in the same way.

[3] = tested on: H1819; test: Cell viability dose-response, H1819; settings: Homo sapiens; for AC50: NCI-H1819, Table 8, 12-point dose-response starting at 50 micromolar; for IC50: NCI-H1819, Tables 3 and 4, read-out: IC50 (uM) vs indicated non-small cell lung cancer cell line H1819
Method in brief: as §1

| Structure (SMILES) | AC50 [1] | AC50 [2] | AC50 [3] | IC50 [1] | IC50 [2] | IC50 [3] | also measured |
| --- | --- | --- | --- | --- | --- | --- | --- |
| Cc1ccccc1/C=C1\COc2cc(OCc3cnn(-c4ccccc4)c3)ccc2C1=O [SW209200-1] | 0.874 µM | 49.5 µM | 49.5 µM | – | – | – | – |
| O=C(O)c1ccc(C(=O)Nc2nc3ccccc3s2)cc1 [SW209412-1] | – | – | – | ≥ 49.5 µM | 49.5 µM | ≥ 49.5 µM | – |
| COc1ncccc1Cc1coc2cc(OCc3cnn(-c4ccccc4)c3)ccc2c1=O [SW209377-1] | 0.232 µM | 0.204 µM | 49.5 µM | – | – | – | – |
| Nc1ccc2nc(NC(=O)c3ccc(C(=O)O)cc3)sc2c1 [SW209413-1] | – | – | – | ≥ 49.5 µM | 49.5 µM | ≥ 49.5 µM | – |
| O=C1/C(=C/c2ccc(C(F)(F)F)cc2)COc2cc(OCc3cnn(-c4ccccc4)c3)ccc21 [SW209198-1] | 1.44 µM | 49.5 µM | 49.5 µM | – | – | – | – |
| Nc1ccc(C(=O)Nc2nc3ccccc3[nH]2)cc1 [SW211566] | – | – | – | ≥ 49.5 µM | 49.5 µM | ≥ 49.5 µM | – |
| O=C1/C(=C/c2ccccc2C(F)(F)F)COc2cc(OCc3cnn(-c4ccccc4)c3)ccc21 [SW209195-1] | 0.085 µM | 0.39 µM | 49.5 µM | – | – | – | – |
| O=C(c1ccccc1)c1ccc(NC(=O)c2nc3ccccc3s2)cc1 [SW209091-1] | – | – | – | 0.01 µM | 24 µM | 9.03 µM | – |
| O=C(Nc1nc2ccccc2[nH]1)c1ccc([N+](=O)[O-])cc1 [SW209206-1] | – | – | – | ≥ 49.5 µM | 49.5 µM | ≥ 49.5 µM | – |
| O=c1c(Cc2cccs2)coc2cc(OCc3cnn(-c4ccccc4)c3)ccc12 [SW209378-1] | 0.081 µM | 0.068 µM | 49.5 µM | – | – | – | – |
| O=c1c(Cc2ccsc2)coc2cc(OCc3cnn(-c4ccccc4)c3)ccc12 [SW209379-1] | 0.082 µM | 0.087 µM | 49.5 µM | – | – | – | – |
| Nc1cccc(C(=O)Nc2nc3ccccc3s2)c1 [SW209323-1] | – | – | – | 0.099 µM | 0.816 µM | 40.3 µM | – |
| O=C(c1ccccc1)c1ccc(/C(=N/c2nc3ccc(OCc4ccc(Cl)cc4)cc3s2)OCc2ccc(Cl)cc2)cc1 [SW211559-1] | – | – | – | 0.086 µM | 0.165 µM | 0.9 µM | – |
| NC(=O)c1ccc(C(=O)Nc2nc3ccccc3s2)cc1 [SW209411-1] | – | – | – | ≥ 49.5 µM | 27.8 µM | 3.1 µM | – |
| C#CCOc1ccc(C(=O)c2ccc(NC(=O)C(=O)NCCc3ccccc3)cc2)cc1 [SW211560-1] | – | – | – | – | – | – | pIC50 ([1]; NCI-H2122, 12-point dose-response starting at 50 micromolar, 3-fold increments, in duplicate, read-out: toxicity data, H2122): ≤ 4.31; pIC50 ([2]; NCI-H2073, 12-point dose-response starting at 50 micromolar, 3-fold increments, in duplicate, read-out: toxicity data, H2073): 4.64; pIC50 ([3]; NCI-H1819, 12-point dose-response starting at 50 micromolar, 3-fold increments, in duplicate, read-out: toxicity data, H1819): ≤ 4.31 |
| C#CCNC(=O)c1ccc(C(=O)Nc2nc3ccccc3s2)cc1 [SW209082-1] | – | – | – | 0.1 µM | 45.5 µM | 45.5 µM | – |
| COC(=O)c1ccc(C(=O)Nc2nc3ccccc3s2)cc1 [SW209414-1] | – | – | – | ≥ 49.5 µM | 49.5 µM | ≥ 49.5 µM | – |
| Cc1ccc(/C=C2\COc3cc(OCc4cnn(-c5ccccc5)c4)ccc3C2=O)cc1 [SW209199-1] | 43.7 µM | 36.1 µM | 39.5 µM | – | – | – | – |
| C#CCOC(=O)Nc1ccc(C(=O)Nc2nc3ccccc3s2)cc1 [SW209168-1] | – | – | – | 0.029 µM | 39.2 µM | 40.1 µM | – |
| O=c1c(Cc2cnccn2)coc2cc(OCc3cnn(-c4ccccc4)c3)ccc12 [SW209207-1] | 26.6 µM | 49.5 µM | 49.5 µM | – | – | – | – |
| O=C(Nc1nc2ccccc2s1)c1cccc([N+](=O)[O-])c1 [SW209205-1] | – | – | – | 0.397 µM | 49.5 µM | 0.468 µM | – |
| O=C1c2ccc(OCc3cnn(-c4ccccc4)c3)cc2OCC1Cc1ccccc1 (stereo not drawn) [SW209202-1] | 0.307 µM | 49.5 µM | 49.5 µM | – | – | – | – |
| O=C1/C(=C/c2c[nH]cn2)COc2cc(OCc3cnn(-c4ccccc4)c3)ccc21 [SW209385-1] | ≥ 49.5 µM | 12.2 µM | 18 µM | – | – | – | – |
